From paper PMC8115122, “Development of Fluorescent and Biotin Probes Targeting NLRP3” (Frontiers in Chemistry, 2021)

Key:
[1] = system: AIM2-dependent cell death; assay: LDH release (pyroptosis) after LPS and poly(dA:dT), AIM2-dependent; assay type: cell-based, murine; details: LPS + poly(dA:dT)
Protocol: […]. All data are means ± SEM (n = 3), Student's t-test. *P ≤ 0.05, **P ≤ 0.01, ***P ≤ 0.001.
To assess pyroptosis, cytosolic lactate dehydrogenase (LDH) release was measured as a marker of cell lysis. […] […]. All assays were performed according to the manufacturer's instructions. A two-tailed unpaired t-test was performed using GraphPad Prism 9.

AIM2 inflammasome = assay: IL-1β release (HTRF) after LPS priming and poly(dA:dT) transfection, AIM2 inflammasome; details: poly(dA:dT)
Protocol: The following experiments were performed with probes 1–4 in immortalized murine bone marrow-derived macrophages. […] For this purpose, AIM2 was stimulated by transfection with poly(deoxyadenylic-deoxythymidylic) acid [poly(dA:dT)] after pretreatment with LPS. A Homogeneous Time Resolved Fluorescence (HTRF) assay was employed to determine the release of IL-1β (Figure 5).

NLRP3 inflammasome = assay: IL-1β release (HTRF) after LPS priming and nigericin, NLRP3 inflammasome; assay type: cell-based, murine; details: for effect on cytokine (IL-1β) release: 20 μM
Protocol: The following experiments were performed with probes 1–4 in immortalized murine bone marrow-derived macrophages. Nigericin, an antibiotic carboxylate ionophore, was used as the activator of the NLRP3 inflammasome, owing to its ability to induce a potassium efflux. […] For this purpose, AIM2 was stimulated by transfection with poly(deoxyadenylic-deoxythymidylic) acid [poly(dA:dT)] after pretreatment with LPS. A Homogeneous Time Resolved Fluorescence (HTRF) assay was employed to determine the release of IL-1β (Figure 5).
All data are means ± SEM (n = 3), Student's t-test. *P ≤ 0.05, **P ≤ 0.01, ***P ≤ 0.001.
NLRP3 KO Immortalized murine bone marrow-derived macrophages overexpressing mouse NLRP3-Flag and human ASC-mCerulean were seeded in 96-well plates and incubated for 16 h. Cells were treated with 400 ng/mL ultrapure LPS for 3 h. […] Subsequently, to induce NLRP3 inflammasome activation, cells were treated with 10 μM nigericin for 1.5 h. As controls, to activate the AIM2 inflammasome, cells were transfected with 200 ng of poly(dA:dT) using 0.5 μL lipofectamine 2,000 per well for 4 h. Supernatants were collected to measure cytosolic LDH release by an LDH assay and IL-1ß release by Homogeneous Time Resolved Fluorescence (HTRF). All assays were performed according to the manufacturer's instructions. A two-tailed unpaired t-test was performed using GraphPad Prism 9.

[2] = target: human NLRP3-PYD-NACHT domain protein (Homo sapiens, UniProt Q96P20); assay: SPR single-cycle kinetic binding to immobilized biotinylated NLRP3-PYD-NACHT; details: for kd, first-order off-rate constant for dissociation: SPR, 25 °C, 1:1 binding model; for kon: read-out: ka, second-order on-rate constant for association
Protocol: HEK293T cells were transiently co-transfected with human avi-FLAG-His10-NLRP3-PYD-NACHT domain (pIRES puro 3 vector) and BirA (pcDNA3.1 vector) for in-cell biotinylation at the lysine amino group of the Avi-tag. […] Eluted protein was stored snap frozen in liquid nitrogen, aliquoted, and stored at −80 °C.
(§1) SPR experiments were performed using a Biacore 8K instrument (GE Healthcare). The flow system was cleaned using the maintenance “Desorb” function (Desorb Kit, GE Healthcare). […] Biotinylated NLRP3-PYD-NACHT protein (2 μL/min, 900 s) was immobilized on the sensor chip flow cell 2. The flow system was washed using 50% isopropanol in 1 M NaCl and 50 mM NaOH. Free streptavidin binding sites were blocked by four consecutive 2-min injections (1,000 nM, 10 μL/min) of Biotin-PEG (Mn = 2,300 Da) (Sigma Aldrich). […] Data were collected at a rate of 10 Hz. The binding data were double referenced by blank cycle and reference flow cell subtraction. Data were corrected by a 4-point solvent correction. For kinetic binding experiments, processed data were fitted to a 1:1 interaction model using the Biacore Insight Evaluation Software (version 3.0.12.15655).

[3] = system: NLRP3-dependent cell death; assay: LDH release (pyroptosis) after LPS and nigericin, NLRP3-dependent; assay type: cell-based, murine; details: LPS + nigericin
Protocol: NLRP3 KO Immortalized murine bone marrow-derived macrophages overexpressing mouse NLRP3-Flag and human ASC-mCerulean were seeded in 96-well plates and incubated for 16 h. Cells were treated with 400 ng/mL ultrapure LPS for 3 h. […] Subsequently, to induce NLRP3 inflammasome activation, cells were treated with 10 μM nigericin for 1.5 h. […] Supernatants were collected to measure cytosolic LDH release by an LDH assay and IL-1ß release by Homogeneous Time Resolved Fluorescence (HTRF). All assays were performed according to the manufacturer's instructions. A two-tailed unpaired t-test was performed using GraphPad Prism 9.

[4] = system: immortalized murine bone marrow-derived macrophages; assay: CellTiter-Blue cell viability assay; assay type: cell-based; details: 4 h in Opti-MEM, tested 625 nM to 40 μM
Protocol: Next, the probes were examined in cell culture experiments. First, we determined the cytotoxicity of probes 1–4 at different concentrations between 625 nM and 40 μM in immortalized murine bone marrow-derived macrophages (Figure 4).
Figure 4 Cell viability of immortalized murine bone marrow-derived macrophages after treatment with probes 1–4. Cells were treated with the probes at different concentrations in Opti-MEM for 4 h. Cell viability was assessed using the CellTiter-Blue cell viability assay.
NLRP3 KO immortalized murine bone marrow-derived macrophages overexpressing mouse NLRP3-FLAG and human ASC-mCerulean were seeded in 96 well plates and incubated overnight. Cells were treated with the fluorescent probes (1 and 2) and the biotin-tagged probes (3 and 4) at different concentrations in Opti-MEM for 4 h. Subsequently, cell viability was assessed using CellTiter-Blue® cell viability assay according to the manufacturer's instructions.

human NLRP3-PYD-NACHT = human NLRP3-PYD-NACHT (Homo sapiens, UniProt Q96P20); assay: SPR competition mode (second ligand injected 120 s after the first); details: competition with CRID3/MCC950, equimolar, 10-times the kinetic KD of the test compound, either order of injection
Protocol: as §1

[5] = concentrations of Figure 5 (not given)

Sequence of human NLRP3-PYD-NACHT domain protein (Q96P20 1-649 limits assumed): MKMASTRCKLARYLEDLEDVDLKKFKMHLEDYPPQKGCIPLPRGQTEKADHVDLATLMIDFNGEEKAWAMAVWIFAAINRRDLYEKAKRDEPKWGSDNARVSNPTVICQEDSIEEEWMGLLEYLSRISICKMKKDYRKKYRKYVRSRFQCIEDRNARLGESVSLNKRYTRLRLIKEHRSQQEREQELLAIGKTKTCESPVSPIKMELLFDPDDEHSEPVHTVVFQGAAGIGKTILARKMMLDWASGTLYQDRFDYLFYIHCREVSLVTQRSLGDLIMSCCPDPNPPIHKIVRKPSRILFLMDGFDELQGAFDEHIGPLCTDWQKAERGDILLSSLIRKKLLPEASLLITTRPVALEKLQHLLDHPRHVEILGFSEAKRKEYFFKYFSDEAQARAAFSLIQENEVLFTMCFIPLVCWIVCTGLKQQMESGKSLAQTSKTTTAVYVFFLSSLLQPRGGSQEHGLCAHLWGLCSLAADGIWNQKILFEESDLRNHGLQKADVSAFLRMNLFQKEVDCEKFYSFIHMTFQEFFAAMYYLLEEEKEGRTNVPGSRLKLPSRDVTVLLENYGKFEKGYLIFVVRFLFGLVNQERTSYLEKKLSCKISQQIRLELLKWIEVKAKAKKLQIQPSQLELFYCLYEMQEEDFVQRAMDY
Sequence of human NLRP3-PYD-NACHT (Q96P20 1-649 limits assumed): as above

Compound | AIM2-dependent cell death (LDH release) ([1]; 2.5 μM) | AIM2-dependent IL-1β release (AIM2 inflammasome; [5]) | inhibition of IL-1β release (NLRP3 inflammasome; 10 μM) | Kd [2] [nM] | kd, first-order off-rate constant for dissociation [2] [s⁻¹] | kon [2] [M⁻¹ s⁻¹] | NLRP3-dependent cell death (LDH release) ([3]; 10 μM) | non-toxic up to concentration [4] | AIM2-dependent cell death (LDH release) ([1]; 10 μM) | response change indicative of a second binding site (human NLRP3-PYD-NACHT) | inhibition of IL-1β release (NLRP3 inflammasome; 2.5 μM) | NLRP3-dependent cell death (LDH release) ([3]; 2.5 μM) | some cytotoxicity at concentrations higher than [4] | AIM2-dependent IL-1β release (AIM2 inflammasome; 2.5 μM) | AIM2-dependent IL-1β release (AIM2 inflammasome; 20 μM, data not shown, attributed to cytotoxicity) | melting point [°C] | effect on cytokine (IL-1β) release (NLRP3 inflammasome)
CC(C)(O)c1coc(S(=O)(=O)NC(=O)Nc2c3c(cc4c2CCC4)CCC3)c1 [CRID3/MCC950, reference compound] | but not the AIM2-dependent cell death | did not affect this process |  |  |  |  |  |  |  |  |  |  |  |  |  |  | 
O=C(COCCOCCNC(=O)c1cc2cc3c4c(c2oc1=O)CCCN4CCC3)NCc1ccc(S(=O)(=O)NC(=O)Nc2c3c(cc4c2CCC4)CCC3)cc1 [Compound 1, N-(2-(2-(2-([4-(N-([1,2,3,5,6,7-Hexahydro-s-indacen-4-yl]carbamoyl)sulfamoyl)benzyl]amino)-2-oxoethoxy)ethoxy)ethyl)-11-oxo-2,3,6,7-tetrahydro-1H,5H,11H-pyrano[2,3-f]pyrido[3,2,1-ij]quinoline-10-carboxamide] |  | did not affect this process | complete inhibition | 813 | 0.01 | 13000 | prevented | up to 10 μM | but not the AIM2-dependent cell death |  |  |  |  |  |  |  | 
O=C(Nc1c2c(cc3c1CCC3)CCC2)NS(=O)(=O)c1ccc(CNC(=O)c2cc3cc4c5c(c3oc2=O)CCCN5CCC4)cc1 [Compound 2] | but not the AIM2-dependent cell death |  |  | 322 | 0.0033 | 10000 |  |  |  | No significant response change | complete inhibition | prevented | higher than 2.5 μM | only a slightly reduced AIM2-dependent release of IL-1β | reduced AIM2-dependent IL-1β release |  | 
O=C(CCCC[C@H]1SC[C@H]2NC(=O)N[C@H]21)NCCOCCOCC(=O)NCc1ccc(S(=O)(=O)NC(=O)Nc2c3c(cc4c2CCC4)CCC3)cc1 [Compound 3, N-(2-(2-(2-([4-(N-([1,2,3,5,6,7-Hexahydro-s-indacen-4-yl]carbamoyl)sulfamoyl)benzyl]amino)-2-oxoethoxy)ethoxy)ethyl)-5-([3aR,4R,6aS]-2-oxohexahydro-1H-thieno[3,4-d]imidazol-4-yl)pentanamide] |  |  |  | 1030 | 0.022 | 22000 |  | up to 40 μM |  |  |  |  |  |  |  | 140 to 142 | did not significantly affect the cytokine release
O=C(CCCCC1SCC2NC(=O)NC21)NCc1ccc(S(=O)(=O)NC(=O)Nc2c3c(cc4c2CCC4)CCC3)cc1 (centres unmarked) [Compound 4] |  |  |  | 611 | 0.0088 | 14000 |  | up to 40 μM |  | No significant response change |  |  |  |  |  |  | did not significantly affect the cytokine release
